Assay [1] has as its system bradykinin response of isolated guinea pig ileum. As to the kind of experiment: Anti-bradykinin activity on isolated guinea pig ileum. Conditions: Table 1; higher numbers indicate higher potency. The method, boiled down:
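Bradykinin concentration-effect curves were run in the absence and presence of compound. Tissue: 25 mm terminal ileum from male Hartley guinea pigs fasted overnight, held at 1 g tension in O2/CO2-bubbled Krebs' solution after 1 h equilibration.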

Assay [2] concerns SCLC strain SHP-77. The experiment in a line: Colorimetric tetrazolium (MTT) assay for cell survival, SCLC strain SHP-77. The class given is cell-based, human. The following applies: Table 1; SHP-77, MTT, 4 days. The method, boiled down:
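MTT assay: cells seeded overnight, treated in triplicate across a concentration range for 4 days at 37 °C, 5% CO2. On day 5, MTT was added for 4 h; formazan was dissolved in acidified isopropanol and absorbance read.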

Turning to “DDD-(DArg-Arg-Eac-Ser-DF5F-Oic-Arg)2 [M804]”, in assay [1], the “GPI: pA2 for bradykinin antagonist activity on isolated guinea pig ileum” value (“GPI: pA2” below) turned out to be 7.7. Besides, in assay [2], the “MTT: ED50 for killing of SCLC strain SHP-77 in vitro” value (“MTT: ED50 for killing” below) is 7.3 µM.
In the case of “DDD-(DArg-Arg-Eac-Ser-DIgl-Oic-Arg)2 [M854]”, in assay [1], the “GPI: pA2” value was 5.9. Moreover, the “MTT: ED50 for killing” value in assay [2] was found to be 7.3 µM.
Take “DDD-(DArg-Arg-Eac-Ser-DTic-Oic-Arg)2 [M794]”: the “GPI: pA2” value in assay [1] is recorded as “Inact”. Besides, the “MTT: ED50 for killing” value in assay [2] came to 21 µM.
Turning to DDD-(DArg-F5F-DArg)2 [M1036], in assay [1], the “GPI: pA2” value came to 5.4. Moreover, in assay [2], the “MTT: ED50 for killing” value is 40 µM.
DDD-(DArg-PFF-Arg)2 [M820]: the “GPI: pA2” value in assay [1] is on record as “Inact”. The “MTT: ED50 for killing” value in assay [2] was determined as 43 µM.
For the substance DDD-(DIgl-hPhe-Arg)2 [M776], in assay [1], the “GPI: pA2” value amounted to 5. In addition, the “MTT: ED50 for killing” value in assay [2] worked out at 30 µM.
For DDD-(DPhe-hPhe-Arg)2 [M756], the “GPI: pA2” value in assay [1] worked out at 5.2. Moreover, the “MTT: ED50 for killing” value in assay [2] came to 18 µM.
Consider “DDD-(Eac-Eac-Arg-DIgl-Oic-Arg)2 [B10200]”, for which, in assay [1], the “GPI: pA2” value came out at 5.8. Also, in assay [2], the “MTT: ED50 for killing” value amounted to 16 µM.
In the case of DDD-(Lys-Ser-DF5F-Oic-Arg)2 [M808], the “GPI: pA2” value in assay [1] is reported as 6.9. The “MTT: ED50 for killing” value in assay [2] was determined as 30 µM.
With DDD-(Pac-2Nal-DArg-NH2)2 [M504], the “GPI: pA2” value in assay [1] amounted to 5.4. In assay [2], the “MTT: ED50 for killing” value amounted to 11 µM.
As to DDD-(Pac-hPhe-Arg)2 [M746], the “GPI: pA2” value in assay [1] is listed as “Inact”. Further, the “MTT: ED50 for killing” value in assay [2] is given as “Inact”.
On to DDD-(p-ABz-hPhe-Arg)2 [M552], for which, in assay [1], the “GPI: pA2” value is “Inact”. Also, in assay [2], the “MTT: ED50 for killing” value is reported as “Inact”.
On to “DTP-(DArg-Arg-Eac-Ser-DF5F-Nc7G-Arg)2 [M1026]”, for which the “GPI: pA2” value in assay [1] came to 6.9. Further, the “MTT: ED50 for killing” value in assay [2] was 70 µM.
The like results for Dcg-F5F-Arg [M130] were, in that order, 4.8 and 20 µM.
In the case of Dpa-PFF-Arg [M816], in assay [1], the “GPI: pA2” value is recorded as 4.6. Also, in assay [2], the “MTT: ED50 for killing” value was found to be 52 µM.
Take “EGS-(DArg-Arg-Eac-Ser-DF5F-Nc7G-Arg)2 [M1030]”: the “GPI: pA2” value in assay [1] is given as 7.0. Also, the “MTT: ED50 for killing” value in assay [2] was determined as 51 µM.
As to “EGS-(DArg-Arg-Pro-Hyp-Gly-Igl-Ser-DIgl-Oic-Arg)2 [B10252]”, the “GPI: pA2” value in assay [1] was 8.3. In addition, the “MTT: ED50 for killing” value in assay [2] amounted to 25 µM.
The like results for “F5c-DArg-Arg-Add-Ser-DIgl-Oic-Arg [M860]” were, in that order, 5.4 and 6 µM.
F5c-DArg-Arg-Aud-DIgl-PFF-Arg [M838]: the “GPI: pA2” value in assay [1] is given as 5.1. Besides, the “MTT: ED50 for killing” value in assay [2] amounted to 7.4 µM.
With F5c-DArg-Arg-Aud-DIgl-hPhe-Arg [M774], the “GPI: pA2” value in assay [1] is “Inact”. The “MTT: ED50 for killing” value in assay [2] came out at 8 µM.
Take F5c-DArg-Arg-Aud-DTic-Oic-Arg [M788]: the “GPI: pA2” value in assay [1] was 5. In addition, the “MTT: ED50 for killing” value in assay [2] came to 9 µM.
On to “F5c-DArg-Arg-Aud-Ser-D5F5-Oic-Arg [M888]”, for which the “GPI: pA2” value in assay [1] is 6.6. Moreover, in assay [2], the “MTT: ED50 for killing” value amounted to 12.5 µM.
On to “F5c-DArg-Arg-Aud-Ser-DIgl-Oic-Arg [M856]”, for which the “GPI: pA2” value in assay [1] is 5.4. In assay [2], the “MTT: ED50 for killing” value is 21 µM.
As to “F5c-DArg-Arg-Eac-Ser-DF5F-Oic-Arg [M796]”, the “GPI: pA2” value in assay [1] is listed as 6.5. Besides, the “MTT: ED50 for killing” value in assay [2] was 31 µM.
“F5c-DArg-Arg-Eac-Ser-DIgl-Oic-Arg [M852]”: the “GPI: pA2” value in assay [1] amounted to 5.9. Further, the “MTT: ED50 for killing” value in assay [2] is on record as “Inact”.

The record behind these values is US7071168B2, “Anti-cancer compounds and methods related thereto” (The Regents of the University of Colorado, priority 1998, dated 2006).
